Data taken from paper PMC4468202, “Improved Visualization and Specific Binding for Metabotropic Glutamate Receptor Subtype 1 (mGluR1) Using [^11C]ITMM with Ultra-High Specific Activity in Small-Animal PET” (PLoS ONE, 2015).
Where “and” joins values, the source holds several entries; their conditions need not be identical. Equal entries are not always repeated.

Target: mGluR1 (Rattus norvegicus, UniProt P23385)
Assay: Two-tissue compartment model (2TCM) kinetic analysis of PET data
Format: in vivo
Design: from tissue; host or cells: living SD rat brain (in vivo PET)
Procedure: Kinetic analysis of [^11C]ITMM was performed using the two-tissue compartment model (2TCM). The compartments correspond to the radioactivity concentrations of unchanged radioprobe in the plasma (C P), free and non-specifically bound radioprobe (C 1), and radioprobe specifically bound to receptors (C 2). The rate constants K 1 and k 2 correspond to the influx and outflux rates of the radioprobe across the blood-brain barrier. The rate constants k 3 and k 4 correspond to the rates of radioprobe transfer between the C 1 and C 2 compartments. The blood volume fraction (vB) in the rat brain was fixed at 2% [28]. The four rate constants of the 2TCM were obtained by a nonlinear least squares fitting technique, using PMOD version 3.4 (PMOD Technologies).
The distribution of [^11C]ITMM in free or tissue compartments was described using the concept of free ligand distribution volume (DV f) or V T, which was defined by the following equations: DVf=K1/k2 (1) VT=DVf(1+k3/k4) (2)
The nondisplacable binding potential (BP ND) is defined using the index of specific bindings of the radioprobe, meaning the receptor density (B max) to binding affinity (K D) ratio, which corresponds with the ratio of k 3 to k 4 in the 2TCM [26]. The BP ND is defined as follows: BPND=fND⋅Bmax/KD=k3/k4 (3) Here, f ND represents the tissue-free fraction of radioprobe in the nondisplacable compartment. Although the fraction of radioprobe that is unbound to plasma proteins was not measured in the present study, the value of f ND is close to 1.0 [29].

[1] = cingulate cortex, conventional SA
[2] = cingulate cortex, ultra-high SA
[3] = substantia nigra, conventional SA
[4] = substantia nigra, ultra-high SA

Chain of mGluR1 (P23385 19-1199): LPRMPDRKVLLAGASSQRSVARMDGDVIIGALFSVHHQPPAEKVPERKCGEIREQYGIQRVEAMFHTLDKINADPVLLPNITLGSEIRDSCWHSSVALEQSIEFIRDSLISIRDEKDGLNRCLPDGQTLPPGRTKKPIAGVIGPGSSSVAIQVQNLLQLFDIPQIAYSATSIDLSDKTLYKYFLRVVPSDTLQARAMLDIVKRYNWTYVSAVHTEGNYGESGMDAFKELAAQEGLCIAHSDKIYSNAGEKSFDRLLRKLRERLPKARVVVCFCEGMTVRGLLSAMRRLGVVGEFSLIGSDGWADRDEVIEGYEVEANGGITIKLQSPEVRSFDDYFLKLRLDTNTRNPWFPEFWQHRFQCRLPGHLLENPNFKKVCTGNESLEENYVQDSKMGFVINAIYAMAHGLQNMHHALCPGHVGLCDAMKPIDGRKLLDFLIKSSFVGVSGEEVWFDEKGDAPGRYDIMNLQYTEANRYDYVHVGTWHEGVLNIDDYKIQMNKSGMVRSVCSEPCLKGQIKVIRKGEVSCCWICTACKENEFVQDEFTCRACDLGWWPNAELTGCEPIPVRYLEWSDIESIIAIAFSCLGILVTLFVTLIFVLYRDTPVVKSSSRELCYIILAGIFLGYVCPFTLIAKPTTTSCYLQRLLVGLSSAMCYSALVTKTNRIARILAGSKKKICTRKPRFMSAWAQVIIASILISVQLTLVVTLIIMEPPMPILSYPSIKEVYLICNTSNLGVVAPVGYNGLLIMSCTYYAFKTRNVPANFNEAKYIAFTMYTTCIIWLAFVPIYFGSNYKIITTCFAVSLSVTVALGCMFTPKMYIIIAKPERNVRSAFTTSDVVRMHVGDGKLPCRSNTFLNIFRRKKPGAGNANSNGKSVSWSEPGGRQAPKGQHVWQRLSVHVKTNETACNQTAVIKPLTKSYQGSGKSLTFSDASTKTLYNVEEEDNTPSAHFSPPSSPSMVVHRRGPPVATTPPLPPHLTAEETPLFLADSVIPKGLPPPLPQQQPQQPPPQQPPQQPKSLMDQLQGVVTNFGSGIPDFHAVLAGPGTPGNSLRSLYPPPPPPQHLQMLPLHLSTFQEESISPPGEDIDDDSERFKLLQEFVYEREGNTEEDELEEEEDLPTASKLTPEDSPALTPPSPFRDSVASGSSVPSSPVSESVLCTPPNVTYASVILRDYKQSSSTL

CC(C)Nc1cc(-c2csc(N(C)C(=O)c3ccc(O[11CH3])cc3)n2)ncn1 [[^11C]ITMM, N-[4-[6-(isopropylamino)pyrimidin-4-yl]-1,3-thiazol-2-yl]-4-[^11C]methoxy-N-methyl-benzamide]
BP ND (k 3/k 4) (cerebellum, conventional SA): 33.2 ± 1.4
DV f (K 1/k 2) (cerebellum, conventional SA): 0.429 ± 0.020
K 1 (cerebellum, conventional SA): 0.344 ± 0.010 mL/cm^3/min
V T (cerebellum, conventional SA): 14.56 ± 0.50 mL/cm^3
k 2 (cerebellum, conventional SA): 0.811 ± 0.045 min⁻¹
k 3 (cerebellum, conventional SA): 0.619 ± 0.035 min⁻¹
k 4 (cerebellum, conventional SA): 0.019 ± 0.001 min⁻¹
BP ND (k 3/k 4) (cerebellum, ultra-high SA): 48.9 ± 2.6
DV f (K 1/k 2) (cerebellum, ultra-high SA): 0.336 ± 0.020
K 1 (cerebellum, ultra-high SA): 0.366 ± 0.019 mL/cm^3/min
V T (cerebellum, ultra-high SA): 16.69 ± 0.92 mL/cm^3
k 2 (cerebellum, ultra-high SA): 1.112 ± 0.098 min⁻¹
k 3 (cerebellum, ultra-high SA): 0.799 ± 0.035 min⁻¹
k 4 (cerebellum, ultra-high SA): 0.016 ± 0.000 min⁻¹
BP ND (k 3/k 4) [1]: 21.7 ± 1.2
DV f (K 1/k 2) [1]: 0.302 ± 0.021
K 1 [1]: 0.312 ± 0.008 mL/cm^3/min
V T [1]: 6.76 ± 0.25 mL/cm^3
k 2 [1]: 1.062 ± 0.086 min⁻¹
k 3 [1]: 0.643 ± 0.053 min⁻¹
k 4 [1]: 0.030 ± 0.001 min⁻¹
BP ND (k 3/k 4) [2]: 32.8 ± 1.9
DV f (K 1/k 2) [2]: 0.257 ± 0.008
K 1 [2]: 0.339 ± 0.019 mL/cm^3/min
V T [2]: 8.66 ± 0.45 mL/cm^3
k 2 [2]: 1.317 ± 0.054 min⁻¹
k 3 [2]: 0.740 ± 0.036 min⁻¹
k 4 [2]: 0.023 ± 0.001 min⁻¹
BP ND (k 3/k 4) (hippocampus, conventional SA): 24.8 ± 1.8
DV f (K 1/k 2) (hippocampus, conventional SA): 0.292 ± 0.011
K 1 (hippocampus, conventional SA): 0.303 ± 0.015 mL/cm^3/min
V T (hippocampus, conventional SA): 7.44 ± 0.27 mL/cm^3
k 2 (hippocampus, conventional SA): 1.052 ± 0.082 min⁻¹
k 3 (hippocampus, conventional SA): 0.644 ± 0.051 min⁻¹
k 4 (hippocampus, conventional SA): 0.026 ± 0.001 min⁻¹
BP ND (k 3/k 4) (hippocampus, ultra-high SA): 38.2 ± 1.5
DV f (K 1/k 2) (hippocampus, ultra-high SA): 0.228 ± 0.008
K 1 (hippocampus, ultra-high SA): 0.320 ± 0.020 mL/cm^3/min
V T (hippocampus, ultra-high SA): 8.93 ± 0.47 mL/cm^3
k 2 (hippocampus, ultra-high SA): 1.415 ± 0.107 min⁻¹
k 3 (hippocampus, ultra-high SA): 0.784 ± 0.027 min⁻¹
k 4 (hippocampus, ultra-high SA): 0.021 ± 0.000 min⁻¹
BP ND (k 3/k 4) (pons, conventional SA): 8.3 ± 0.5
DV f (K 1/k 2) (pons, conventional SA): 0.224 ± 0.011
K 1 (pons, conventional SA): 0.271 ± 0.015 mL/cm^3/min
V T (pons, conventional SA): 2.06 ± 0.06 mL/cm^3
k 2 (pons, conventional SA): 1.237 ± 0.122 min⁻¹
k 3 (pons, conventional SA): 0.256 ± 0.022 min⁻¹
k 4 (pons, conventional SA): 0.031 ± 0.001 min⁻¹
BP ND (k 3/k 4) (pons, ultra-high SA): 9.8 ± 0.5
DV f (K 1/k 2) (pons, ultra-high SA): 0.221 ± 0.015
K 1 (pons, ultra-high SA): 0.244 ± 0.004 mL/cm^3/min
V T (pons, ultra-high SA): 2.39 ± 0.23 mL/cm^3
k 2 (pons, ultra-high SA): 1.131 ± 0.084 min⁻¹
k 3 (pons, ultra-high SA): 0.253 ± 0.011 min⁻¹
k 4 (pons, ultra-high SA): 0.026 ± 0.001 min⁻¹
BP ND (k 3/k 4) (striatum, conventional SA): 20.0 ± 1.1
DV f (K 1/k 2) (striatum, conventional SA): 0.367 ± 0.015
K 1 (striatum, conventional SA): 0.278 ± 0.014 mL/cm^3/min
V T (striatum, conventional SA): 7.7 mL/cm^3 and 7.66 ± 0.28 mL/cm^3
k 2 (striatum, conventional SA): 0.769 ± 0.061 min⁻¹
k 3 (striatum, conventional SA): 0.612 ± 0.036 min⁻¹
k 4 (striatum, conventional SA): 0.031 ± 0.001 min⁻¹
BP ND (k 3/k 4) (striatum, ultra-high SA): 30.6 ± 1.8
DV f (K 1/k 2) (striatum, ultra-high SA): 0.311 ± 0.021
K 1 (striatum, ultra-high SA): 0.294 ± 0.014 mL/cm^3/min
V T (striatum, ultra-high SA): 9.7 mL/cm^3 and 9.66 ± 0.41 mL/cm^3
k 2 (striatum, ultra-high SA): 0.972 ± 0.083 min⁻¹
k 3 (striatum, ultra-high SA): 0.722 ± 0.043 min⁻¹
k 4 (striatum, ultra-high SA): 0.024 ± 0.001 min⁻¹
BP ND (k 3/k 4) [3]: 16.6 ± 1.6
DV f (K 1/k 2) [3]: 0.378 ± 0.030
K 1 [3]: 0.298 ± 0.021 mL/cm^3/min
V T [3]: 6.4 mL/cm^3 and 6.44 ± 0.22 mL/cm^3
k 2 [3]: 0.840 ± 0.128 min⁻¹
k 3 [3]: 0.470 ± 0.031 min⁻¹
k 4 [3]: 0.029 ± 0.001 min⁻¹
BP ND (k 3/k 4) [4]: 26.1 ± 2.0
DV f (K 1/k 2) [4]: 0.321 ± 0.023
K 1 [4]: 0.292 ± 0.012 mL/cm^3/min
V T [4]: 8.5 mL/cm^3 and 8.53 ± 0.47 mL/cm^3
k 2 [4]: 0.933 ± 0.075 min⁻¹
k 3 [4]: 0.602 ± 0.036 min⁻¹
k 4 [4]: 0.023 ± 0.001 min⁻¹
BP ND (k 3/k 4) (thalamus, conventional SA): 25.5 ± 1.2
DV f (K 1/k 2) (thalamus, conventional SA): 0.347 ± 0.018
K 1 (thalamus, conventional SA): 0.303 ± 0.012 mL/cm^3/min
V T (thalamus, conventional SA): 9.1 mL/cm^3 and 9.12 ± 0.37 mL/cm^3
k 2 (thalamus, conventional SA): 0.886 ± 0.064 min⁻¹
k 3 (thalamus, conventional SA): 0.669 ± 0.033 min⁻¹
k 4 (thalamus, conventional SA): 0.026 ± 0.001 min⁻¹
BP ND (k 3/k 4) (thalamus, ultra-high SA): 38.5 ± 1.1
DV f (K 1/k 2) (thalamus, ultra-high SA): 0.284 ± 0.018
K 1 (thalamus, ultra-high SA): 0.313 ± 0.016 mL/cm^3/min
V T (thalamus, ultra-high SA): 11.2 mL/cm^3 and 11.15 ± 0.51 mL/cm^3
k 2 (thalamus, ultra-high SA): 1.125 ± 0.088 min⁻¹
k 3 (thalamus, ultra-high SA): 0.817 ± 0.025 min⁻¹
k 4 (thalamus, ultra-high SA): 0.021 ± 0.000 min⁻¹
